The nature of this series: Brain levels in rat following IP administration. It counts as in vivo. The following applies: PBx pretreated; for Concentration of NTP-2024 in rat brain: NTP-2024 100 mg/kg IP; for Concentration of NTP-2000 (bumetanide) in rat brain: after NTP-2024 100 mg/kg IP.

Structures are written as SMILES. “And” between values parts separate entries of the source, which are not always exact repeats. Identical values can stand only once.

`CCCCNc1cc(C(=O)NN2CCOCC2)cc(S(N)(=O)=O)c1Oc1ccccc1` [NTP-2024, N-Morpholinyl 3-Aminosulfonyl-5-N-butylamino-4-phenoxybenzamide]: the “Concentration of NTP-2024 in rat brain” value was 283.783 ng/mL and 277.985 ng/mL and 226.803 ng/mL (15 m); 223.370 ng/mL and 340.460 ng/mL and 348.182 ng/mL (30 m); 124.854 ng/mL and 112.217 ng/mL and 154.415 ng/mL (2 h); 26.6338 ng/mL and 23.4893 ng/mL and 37.1694 ng/mL (4 h); 25.4146 ng/mL and 18.4619 ng/mL and 25.7880 ng/mL (6 h). Further, the “Concentration of NTP-2000 (bumetanide) in rat brain” value is, setting by setting: (15 m) “BLQ (Below Limit of Quantitation (<1 ng/mL))”; (2 h) “BLQ (Below Limit of Quantitation (<1 ng/mL))”; (4 h) “BLQ (Below Limit of Quantitation (<1 ng/mL))”; (6 h) “BLQ (Below Limit of Quantitation (<1 ng/mL))”.

Source of the values: patent US9682928B2 (NeuroPro Therapeutics, Inc., priority 2009, dated 2017).
